# Results: US6753150B2, “Method for determining whether a compound is capable of inhibiting the interaction of a peptide with rage” (The Trustees of Columbia University in the City of New York, priority 1998, dated 2004)
# B1: CML-ovalbumin: carboxymethyl-lysine-modified ovalbumin, a synthetic AGE (protein, UniProt P01012 2-386, looked up)
# Ovalbumin: GSIGAASMEFCFDVFKELKVHHANENIFYCPIAIMSALAMVYLGAKDSTRTQINKVVRFDKLPGFGDSIEAQCGTSVNVHSSLRDILNQITKPNDVYSFSLASRLYAEERYPILPEYLQCVKELYRGGLEPINFQTAADQARELINSWVESQTNGIIRNVLQPSSVDSQTAMVLVNAIVFKGLWEKAFKDEDTQAMPFRVTEQESKPVQMMYQIGLFRVASMASEKMKILELPFASGTMSMLVLLPDEVSGLEQLESIINFEKLTEWTSSNVMEERKIKVYLPRMKMEEKYNLTSVLMAMGITDVFSSSANLSGISSAESLKISQAVHAAHAEINEAGREVVGSAEAGVDAASVSEEFRADHPFLFCIKHIATNAVLFFGRCVSP
# modifications: carboxymethyl-lysine modified
# notes: carboxymethyl-lysine-modified ovalbumin, a synthetic AGE
# B2: native ovalbumin: unmodified ovalbumin control protein (protein, UniProt P01012 2-386, looked up)
# Ovalbumin: B1 Ovalbumin
# How the values were obtained:
# sRAGE [1] = biological target: T1, sRAGE (Homo sapiens, UniProt Q15109); assay: Radioligand binding of 125I-sRAGE to immobilized AGE-modified proteins (dose response); settings: for specific binding to sRAGE/RAGE: immobilized AGE-protein, 125I-sRAGE
# T1 construct: full length soluble RAGE (100 nM; specific activity 7,000-8,000 cpm/ng)
# T1 sequence (Q15109 23-342 limits assumed): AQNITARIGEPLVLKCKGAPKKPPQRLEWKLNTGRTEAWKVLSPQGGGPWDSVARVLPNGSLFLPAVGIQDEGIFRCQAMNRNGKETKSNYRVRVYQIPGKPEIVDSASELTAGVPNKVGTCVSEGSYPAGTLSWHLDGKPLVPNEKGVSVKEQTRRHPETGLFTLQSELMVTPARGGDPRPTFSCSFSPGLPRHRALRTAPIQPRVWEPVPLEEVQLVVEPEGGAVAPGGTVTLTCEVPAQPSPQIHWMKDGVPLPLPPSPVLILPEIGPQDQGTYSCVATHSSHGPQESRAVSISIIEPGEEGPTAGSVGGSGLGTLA
# Experimental: Radioligand binding studies: dose response experiments. CML- or pentosidine BSA (5 μg) was immobilized to plastic wells and radioligand binding assays performed with increasing concentrations of purified ^125-I sRAGE +/− excess unlabelled sRAGE (50-fold molar excess). Bound tracer was eluted with buffer containing NP40 (1%) and NaCl (0.15M) and the data subjected to analysis as described in the Experimental Details section.
# Radioligand binding assays. […] All materials were devoid of endotoxin using the Detoxi-gel system (PIERCE®) and tested for negativity in the limulus amebocyte assay (SIGMA®). […] Specific AGE or control protein (5 μg) was loaded onto the wells of a NUNC MAXISORP® dish in sodium bicarbonate/sodium carbonate buffer (pH 9.8) overnight at 4° C. The following morning, wells were aspirated and blocked with phosphate buffered saline (with calcium/magnesium) containing bovine serum albumin (1%) for two hrs at 37° C. Wells were then washed once with phosphate buffered saline (without calcium/magnesium) containing Tween 20 (0.05%); 0.150 ml/well. A radioligand binding assay was then performed in phosphate buffered saline containing 0.2% bovine serum albumin for 2 hrs at 37° C. utilizing radiolabelled (^125I; using Iodogen (Pierce)) full length soluble RAGE (100 nM; specific activity 7,000-8,000 cpm/ng) in the presence or absence of unlabelled soluble RAGE (50×molar excess) or the indicated molar excess of competitor. Wells were then eluted after washing as above with buffer containing NP-40 (1%) and NaCl (0.15M). The material retrieved was then counted in a gamma counter (LKB). In certain experiments, antibodies or excess soluble RAGE were employed as indicated to test their ability to compete in the indicated assays.
# Radioligand binding studies. […] Radioligand binding assays were performed in which CML-BSA, pentosidine-BSA or methylglyoxal-human serum albumin was adsorbed to plastic wells. Radioligand binding assays were performed as described and equilibrium binding data was analyzed according to the equation of Klotz and Hunston.
# sRAGE [2] = biological target: T1, sRAGE; assay: Radioligand competition: 125I-sRAGE (100 nM) binding to immobilized CML-BSA with competitors; settings: competitor in excess
# Experimental: Radioligand binding studies: competition experiments. CML-BSA was immobilized to wells; binding was performed with ^125-I sRAGE (100 nM) with the indicated competitors. […] Percent maximal binding is reported compared to binding to immobilized CML-BSA without competitor (100%).
# Radioligand binding studies: CML-adducts interact with the V-type Ig domain of RAGE. CML-BSA was immobilized to wells; binding was performed with ^125-I sRAGE (100 nM) in the presence or absence of excess unlabelled (100-fold) V-type Ig domain, C1 Ig domain or C2 Ig domain. Percent maximal binding is reported compared to binding to immobilized CML-BSA without competitor (100%).
# Radioligand binding assays. […] All materials were devoid of endotoxin using the Detoxi-gel system (PIERCE®) and tested for negativity in the limulus amebocyte assay (SIGMA®). Gas chromatography-mass spectroscopy and HPLC analyses were performed and verified the identity of the prepared AGES. Specific AGE or control protein (5 μg) was loaded onto the wells of a NUNC MAXISORP® dish in sodium bicarbonate/sodium carbonate buffer (pH 9.8) overnight at 4° C. […] The material retrieved was then counted in a gamma counter (LKB). […]
# Radioligand binding studies. […] Radioligand binding assays were performed as described and equilibrium binding data was analyzed according to the equation of Klotz and Hunston.
# RAGE = RAGE (Homo sapiens, UniProt Q15109); assay: Binding of CML-modified proteins to immobilized RAGE (Example 2); settings: for Kd: dose-dependent and saturable
# RAGE, sequence (Q15109 23-404): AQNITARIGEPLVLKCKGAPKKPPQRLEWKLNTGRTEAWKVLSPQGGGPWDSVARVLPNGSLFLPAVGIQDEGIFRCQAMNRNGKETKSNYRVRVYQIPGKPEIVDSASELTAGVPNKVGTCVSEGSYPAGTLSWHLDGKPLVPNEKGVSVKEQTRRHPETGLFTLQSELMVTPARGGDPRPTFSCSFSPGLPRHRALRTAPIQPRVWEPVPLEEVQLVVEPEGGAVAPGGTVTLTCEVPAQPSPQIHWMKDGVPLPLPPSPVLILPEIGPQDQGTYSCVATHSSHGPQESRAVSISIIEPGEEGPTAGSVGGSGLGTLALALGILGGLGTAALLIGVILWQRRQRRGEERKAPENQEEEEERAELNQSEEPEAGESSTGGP
# From the text: (§1) Advanced glycation endproducts (AGEs) are heterogeneous compounds that form in hyperglycemia, highly-oxidized environments and renal failure. AGEs accumulate in the plasma and tissues of patients with diabetes; their presence has been linked to the development of medical complications. Interaction of AGEs with Receptor for AGE ([…]) activates cells such as endothelial cells (Ecs) and monocytes (Mps) in a manner favoring the development of vascular/inflammatory cell complications. AGEs consist of structures such as carboxymethyl-lysine and pentosidine (both free and protein-bound forms). To begin to delineate which AGE forms interact with RAGE, we prepared free CML and pentosidine, as well as CML- and pentosidine bovine serum albumin (BSA) and ovalbumin (OVA).
# VCAM-1 = assay: Infusion into normal mice, Northern analysis of VCAM-1 mRNA in lung; format: in vivo; settings: 100 μg infused into CD1 mice, six hrs, Northern blot
# Experimental: FIG. 7. In vivo studies: infusion of CML-BSA into mice modulates […] expression. CML-BSA (lane 2) or native BSA (lane 1) (both 100 μg) was infused into normal CD1 mice. LPS (100 μg) was infused as positive control (lane 3). Six hrs later, mice were humanely sacrificed and lungs rapidly removed for preparation of RNA. Northern analysis was performed as described above for VCAM-1; membranes were then stripped and reprobed with ^32-P-labelled cDNA for G3PDH.
# Northern blot analysis. Northern blot analysis for VCAM-1 and G3PDH were performed as previously described (19).
# Infusion of CML-BSA into normal mice increases mRNA for Vascular Cell Adhesion Molecule-1.
# NF-κB [3] = assay: NF-κB activation in monocytes (MPs) (Example 2); format: cell-based
# From the text: as §1
# [4] = system: Human umbilical vein endothelial cells (HUVEC); assay: Molt-4 binding assay on stimulated endothelial cells (cell surface VCAM-1 functional activity); format: cell-based; settings: for binding of Molt-4 cells to Ecs: Example 2
# Experimental: FIG. 4. Cellular activation studies: endothelial cells. HUVEC were incubated in the presence of the indicated mediators for 6 hrs. Where indicated, certain cells were preincubated with anti-RAGE/preimmune IgG for one hour. Cells were washed and incubated with ^51Cr-Molt-4 cells (bear VLA-4) for 1 hr. Bound radioactivity was eluted in the presence of SDS (1%) and counted in a gamma counter. Results are reported compared with Molt-4 cell binding to cells exposed to native ovalbumin (defined as “1”).
# Molt-4 binding assays. Molt-4 binding assays were performed according to the general method of Marui et al (32). Human umbilical vein endothelial cells were stimulated with the indicated compound in the presence or absence of competitors for 6 hrs at 37° C. Molt-4 cells, which express VLA-4, ligand for VCAM-1, (ATCC) were grown in RPMI 1640 containing fetal bovine serum (10%). Radio labelling was accomplished by incubating Molt-4 cells (2×10^7 cells/ml) for 16 hrs at 37° C. in the above medium containing ^51-Cr (0.2 mCi/ml). Before the binding assay, unincorporated radioactivity was removed by washing cells with Hank's balanced salt solution, and then resuspending them in RPMI containing fetal bovine serum (10%) at 4×10^6 cells/ml. Molt-4 cells were incubated with endothelial cells for one hr at 37° C., and nonadherent cells were removed by washing twice with Medium 199 containing fetal bovine serum (1%); adherent cells were solubilized in SDS (1%), and radioactivity counted in a gamma counter.
# To test if incubation of CML-ovalbumin or pentosidine-ovalbumin activated EC, specific AGEs were rendered free of endotoxin (Detoxigel columns (PIERCE®)) and tested for absence of endotoxin by limulus amebocyte assay (SIGMA®).
# [5] = system: human peripheral blood-derived mononuclear phagocytes; assay: Monocyte chemotaxis assay in modified chemotaxis chambers; format: cell-based; settings: mediator in lower wells, three hrs
# Experimental: FIG. 5. Cellular activation studies: mononuclear phagocytes. Human monocytes (5×10^4) were placed in the upper wells of modified chemotaxis chambers with the indicated mediators in the lower wells for three hrs. Membranes were then stained with Giemsa and cells that migrated through the membrane toward the chemotactic stimulus counted per hpf.
# Chenotaxis assays. Chemotaxis assays, performed in 48-well microchemotaxis chambers (Neuro-Probe) containing polycarbonate membranes were performed as previously described (15). In these studies, human peripheral blood-derived mononuclear phagocytes, which bear cell surface RAGE, were employed.
# Mononuclear phagocytes. To determine if CML-ovalbumin mediated increased human peripheral blood-derived monocyte chemotaxis, experiments were performed in modified chemotaxis chambers as described above.
# NF-κB [6] = assay: Electrophoretic mobility shift assay for NF-κB in endothelial cells; format: cell-based, human; settings: for nuclear translocation / activation of NF-κB in HUVEC: 6 hrs, AGEs at 50 μg/ml; for activation of NF-κB in Ecs: Example 2
# Experimental: FIG. 6. Electrophoretic mobility shift assay. Human umbilical vein endothelial cells (HUVEC) were incubated with mediators for 6 hrs; nuclear extracts were prepared and electrophoretic mobility shift assays performed with ^32P-labelled probe for NF-κB. Lanes contain mediators as above (all AGEs were added at 50 μg/ml). Lanes contain: lane 1, CML-ovalbumin; lane 2, native ovalbumin; lane 3, pentosidine ovalbumin; lane 4, nonimmune IgG and CML ovalbumin; lane 5, anti-RAGE IgG: 7 μg/ml; lane 6; anti-RAGE IgG: 70 μg/ml; lane 7: CML-ovalbumin/100-fold excess unlabelled NF-κB. Supershift assays (lane 8: anti-p50 IgG; lane 9:anti-p65 IgG; lane 10:both anti-p50 IgG and anti-p65 IgG; lane 11: preimmune IgG), all + CML-ovalbumin. Lane 12:CML-ovalbumin: vector alone/13:tail-deleted RAGE.
# Electrophoretic mobility shift assays (EMSA). Nuclear extracts were prepared from HUVECs by the method of Schreiber (33). Protein concentration was determined using the Bradford reagent (BIO-RAD®). Double-stranded oligonucleotides representing a portion of the human VCAM-1 promoter containing an NF-κB site were synthesized (Life Technologies). Oligonucleotides were used as probe as follows: NF-κB: 5′[…]3′ (SEQ ID No. 1). Probes were 5′-end labelled with g-[^32P] ATP and polynucleotide kinase. Each reaction contained 10 fmol of probe and 2-5 microliter (1.5 μg) of nuclear extract. Binding reactions were performed in buffer as previously described (19). Complexes were resolved on nondenaturing polyacrylamide gels (6%) in tris (50 mM), borate (45 mM), and EDTA (0.5 mM), ([…]; final pH 7.5). Samples were subjected to electrophoresis for 2 hrs at 10 V/cm. For supershift assays, complexes were preincubated with anti-p65 IgG, anti-p50 IgG or both together, or nonimmune IgG (7.5 μg/ml; 2 hrs 37° C.) in a total reaction volume of 20 μl.
# We tested the ability of CML-ovalbumin to ligate RAGE and activate cell signalling pathways.
molecule,measurement,setting,value
"N[C@@H](CCCCNCC(=O)O)C(=O)O [free CML, N^e-(Carboxymethyl)lysine]",specific binding to sRAGE/RAGE,sRAGE [1],not
same,effect on binding of 125I-sRAGE to immobilized CML-BSA,sRAGE [2],no effect
same,effect on binding of CML-BSA and CML-OVA to immobilized RAGE,RAGE,not
"N[C@@H](CCCCn1cccc2nc(NCCC[C@H](N)C(=O)O)nc1-2)C(=O)O [free pentosidine, Pentosidine]",effect on binding of 125I-sRAGE to immobilized CML-BSA,sRAGE [2],no effect
same,effect on binding of CML-BSA and CML-OVA to immobilized RAGE,RAGE,not
"CML-BSA: carboxymethyl-lysine-modified bovine serum albumin, a synthetic AGE",Kd,"sRAGE [1]; read-out: KD of binding to sRAGE, AGE-protein (5 μg) immobilized on wells, increasing 125I-sRAGE +/- 50-fold excess unlabelled sRAGE",~76 nM
same,mRNA for VCAM-1 in lung tissue,VCAM-1,increased mRNA for VCAM-1
same,Kd,RAGE,60 nM
same,activation of NF-κB in MPs,NF-κB [3],activated NF-κB
"CML-ovalbumin: carboxymethyl-lysine-modified ovalbumin, a synthetic AGE",binding of Molt-4 cells to Ecs,[4],increased binding of Molt-4 cells
same,increase in binding of 51Cr-Molt 4 cells to HUVEC,"[4]; HUVEC exposed 6 hrs, relative to native ovalbumin (defined as 1)",2.3 fold
same,monocyte chemotaxis,[5],stimulated monocyte chemotaxis in a dose-dependent manner
same,nuclear translocation / activation of NF-κB in HUVEC,NF-κB [6],increased nuclear translocation of NF-κB
same,activation of NF-κB in Ecs,NF-κB [6],activated NF-κB
same,activation of NF-κB in MPs,NF-κB [3],activated NF-κB
native ovalbumin: unmodified ovalbumin control protein,effect on binding of 51Cr-Molt 4 cells to HUVEC,[4]; HUVEC exposed 6 hrs,without effect
same,monocyte chemotaxis,[5],without effect
same,nuclear translocation / activation of NF-κB in HUVEC,NF-κB [6],not
pentosidine-BSA: pentosidine-modified bovine serum albumin,specific binding to sRAGE/RAGE,sRAGE [1],no specific binding
same,binding of Molt-4 cells to Ecs,[4],without effect
same,monocyte chemotaxis,[5],without effect
same,activation of NF-κB in Ecs,NF-κB [6],without effect
same,activation of NF-κB in MPs,NF-κB [3],without effect
pentosidine-ovalbumin: pentosidine-modified ovalbumin,effect on binding of 51Cr-Molt 4 cells to HUVEC,[4]; HUVEC exposed 6 hrs,without effect
same,nuclear translocation / activation of NF-κB in HUVEC,NF-κB [6],not
unmodified BSA: unmodified bovine serum albumin control protein,mRNA for VCAM-1 in lung tissue,VCAM-1,without effect
same,effect on binding of CML-BSA and CML-OVA to immobilized RAGE,RAGE,not
B1,Kd,RAGE,60 nM
B2,effect on binding of CML-BSA and CML-OVA to immobilized RAGE,RAGE,not
